From publication PMC4734850, “Tyrosinase inhibitory activity of flavonoids from Artocarpus heterophyllous” (Chemistry Central Journal, 2016)
Read-outs that look alike come from different tables or passages of the source.

Assays:
[1] = target: T1, Tyrosinase (EC 1.14.18.1) from mushroom (Agaricus bisporus, UniProt C7FF04); test: Tyrosinase inhibitory assay (L-DOPA oxidation, absorbance at 475 nm); format: biochemical
T1 construct: purchased Sigma Chemical Co. (St. Louis, MO, USA)
Description: Tyrosinase (EC 1.14.18.1) from mushroom (3933 U/mL) and L-dihydroxyphenylalanine (L-DOPA) were obtained from Sigma Chemical Co. (St. Louis, MO, USA). […] Other chemicals were of the highest grade available.
All the samples were first dissolved in DMSO and used for the actual experiment at concentrations of […] (or µM for pure compounds). The tyrosinase inhibitory activity assay was performed as previously described by Arung et al.. The assay mixtures consisting of 1900 µL of test solution in 0.1 M phosphate buffer pH 6.8 and 100 µL of enzyme solution (15 U/mL in 0.1 M phosphate buffer pH 6.8) was prepared immediately before use. After preincubation at room temperature for 30 min, the reaction was initiated by the addition of 1000 µL of substrate solution (1.5 mM L-DOPA in 0.1 M phosphate buffer pH 6.8). The assay mixture was incubated at room temperature for 7 min, and the absorbance at 475 nm was measured with a Shimadzu UV-1800 spectrophotometer. […] Tyrosinase inhibitory activity was expressed as the percentage inhibitory of enzyme tyrosinase in the above assay system, calculated as (1 − B/A) × 100, where A and B are the activities of the enzyme without and with test material. IC50 values were calculated from the mean values of data from four determinations.

mushroom tyrosinase = target: T2, mushroom tyrosinase (Agaricus bisporus, UniProt C7FF04); test: Inhibition mechanism, Lineweaver–Burk plots; format: biochemical; details: 30 °C, pH 6.8
T2 construct: purchased Sigma Chemical Co. (St. Louis, MO, USA)
Description: Fig. 3 Lineweaver–Burk plots for type of inhibition of mushroom tyrosinase (10 U/mL) by artocaepin E (1) for the catalysis of L-DOPA (0.2, 0.3, 0.4, 0.5, and 0.6 mM) at 30 °C, pH 6.8. Concentration of these compounds for curves I0.0, I5.0, I7.0, and I10.0 were 0.0, 5.0, 7.0, and 10.0 μM, respectively. The inset represents the plot of these compounds for determining the inhibition constant (Ki). The line is drawn using a linear lest squares fit
The dependence of absorbance (475 nm) on time was measured, and the reaction rate was calculated for all reactions (uninhibited and inhibited). Then, a Lineweaver–Burk plot was constructed, and Km and Vm values were calculated. Each measurement was performed in duplicate.

[2] = mushroom tyrosinase, substrate L-DOPA, 0.1 M phosphate buffer pH 6.8, room temperature, read-out: Tyrosinase inhibitory activity IC50

T1 sequence (C7FF04 1-392 limits assumed): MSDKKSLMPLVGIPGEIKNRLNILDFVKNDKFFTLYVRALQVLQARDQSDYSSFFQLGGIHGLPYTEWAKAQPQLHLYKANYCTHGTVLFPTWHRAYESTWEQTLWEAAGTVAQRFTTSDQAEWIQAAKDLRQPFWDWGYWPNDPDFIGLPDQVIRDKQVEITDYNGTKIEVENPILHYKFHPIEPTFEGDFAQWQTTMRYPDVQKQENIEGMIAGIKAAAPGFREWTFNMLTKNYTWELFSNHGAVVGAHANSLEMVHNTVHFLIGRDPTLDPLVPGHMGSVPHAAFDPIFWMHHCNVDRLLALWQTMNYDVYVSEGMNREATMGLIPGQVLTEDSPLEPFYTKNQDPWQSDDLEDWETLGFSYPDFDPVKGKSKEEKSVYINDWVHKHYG
T2 sequence (C7FF04 1-392 limits assumed): as above

Compound	IC50 [1, 2]	other results
C/C(=C\Cc1c(O)ccc2c1O[C@H](c1ccc(O)cc1)CC2=O)CO [Compound 2, artocaepin F]	> 50 µM	–
O=c1cc(-c2ccc(O)cc2O)oc2cc(O)cc(O)c12 [Compound 3, norartocarpetin]	> 50 µM	–
O=C1C[C@@H](c2ccc(O)cc2)Oc2cc(O)ccc21 [Compound 5, liquiritigenin]	–	IC50 [1]: 22 ± 2.5 µM
O=C1CC(c2ccc(O)cc2O)Oc2cc(O)cc(O)c21 (stereo not shown) [Compound 6, steppogenin]	7.5 ± 0.5 µM	inhibitory activity relative to 4 ([1]; ratio of tyrosinase IC50 values, 6 vs 4): 3.75 fold
O=C1c2c(O)cc(O)cc2O[C@H](c2ccc(O)cc2O)[C@H]1O [Compound 7, dihydromorin]	> 50 µM	–

Further lines, with some results ahead:

IC50 [1, 2]	Compound	other results
6.7 ± 0.8 µM	C/C(=C\Cc1c(O)cc2oc(-c3ccc(O)cc3O)cc(=O)c2c1O)COC(=O)/C=C/c1ccc(O)cc1 [Compound 1, artocaepin E]	type of inhibition (mushroom tyrosinase; Lineweaver–Burk plots, L-DOPA substrate): competitive inhibition; Ki (mushroom tyrosinase; mushroom tyrosinase 10 U/mL, L-DOPA 0.2-0.6 mM, read-out: inhibition constant (Ki)): 6.23 µM
2 ± 0.1 µM	COc1cc(O)c2c(c1)O[C@H](c1ccc(O)cc1O)CC2=O [Compound 4, artocarpanone]	–
